Laboratory results from patent publication US20090239846A1, “Novel Compounds” (Glaxo Group Limited, priority 2005, published 2009).
Structures can show the parent of a compound that is named as a salt.

Columns and labels:
Recombinant human p38α = biological target: T1, Recombinant human p38α (Homo sapiens, UniProt Q16539); assay: Fluorescence anisotropy kinase binding assay (standard or low volume); details: 12 nM p38α, 5 nM fluorescent ligand
T1 construct: GST; made in house
From the text: (§1) The concentration of kinase enzyme should preferably be >2×Kf. The concentration of fluorescent ligand required will depend on the instrumentation used, and the fluorescent and physicochemical properties. The concentration used must be lower than the concentration of kinase enzyme, and preferably less than half the kinase enzyme concentration.
The fluorescent ligand is the following compound:
[drawing 329] • which is derived from 5-[2-(4-aminomethylphenyl)-5-pyridin-4-yl-1H-imidazol-4-yl]-2-chlorophenol and rhodamine green. Recombinant human p38α was expressed as a GST-tagged protein. To activate this protein, 3.5 μM unactivated p38α was incubated in 50 mM Tris-HCl pH 7.5, 0.1 mM EGTA, 0.1% 2-mercaptoethanol, 0.1 mM sodium vanadate, 10 mM MgAc, 0.1 mM ATP with 200 nM MBP-MKK6 DD at 30 degrees for 30 mins. Following activation p38α was re-purified and the activity assessed using a standard filter-binding assay. Protocol: All components are dissolved in buffer of composition 62.5 mM HEPES, pH 7.5, 1.25 mM CHAPS, 1 mM DTT, 12.5 mM MgCl2 with final concentrations of 12 nM p38α and 5 nM fluorescent ligand. 30 μl of this reaction mixture is added to wells containing 1 μl of various concentrations of test compound (0.28 nM-16.6 μM final) or DMSO vehicle (3% final) in NUNC 384 well black microtitre plate and equilibrated for 30-60 mins at room temperature. Fluorescence anisotropy is read in Molecular Devices Acquest (excitation 485 nm/emission 535 nm). Definitions: Ki=dissociation constant for inhibitor binding • Kf=dissociation constant for fluorescent ligand binding
as §1, with “2×Kf.” for “>2×Kf.”, “concentration. The fluorescent ligand is the following compound:” for “concentration.”
which is derived from 5-[2-(4-aminomethylphenyl)-5-pyridin-4-yl-1H-imidazol-4-yl]-2-chlorophenol and rhodamine green. Recombinant human p38α was expressed as a GST-tagged protein. To activate this protein, 3.5 μM unactivated p38α was incubated in 50 mM Tris-HCl pH 7.5, 0.1 mM EGTA, 0.1% 2-mercaptoethanol, 0.1 mM sodium vanadate, 10 mM MgAc, 0.1 mM ATP with 200 nM MBP-MKK6 DD at 30 degrees for 30 mins. Following activation p38α was re-purified and the activity assessed using a standard filter-binding assay. Protocol: All components are dissolved in buffer of composition 62.5 mM HEPES, pH 7.5, 1.25 mM CHAPS, 1 mM DTT, 12.5 mM MgCl2 with final concentrations of 12 nM p38α and 5 nM fluorescent ligand. […] of this reaction mixture is added to wells containing 0.1 μl of various concentrations of test compound (0.02 nM-25 μM final) or DMSO vehicle (1.7% final) in Greiner low volume 384 well black microtitre plate and equilibrated for 30-60 mins at room temperature. Fluorescence anisotropy is read in Molecular Devices Acquest (excitation 485 nm/emission 535 nm). Definitions: Ki dissociation constant for inhibitor binding • Kf=dissociation constant for fluorescent ligand binding It is noted that there are two assay formats shown above for the Fluorescence anisotropy kinase binding assay. The only difference between these two assays is the volume used and the plate type. […] The results described herein may have been performed in either assay format and are not differentiated as to which.

[1] = test system: influx of neutrophils to the lung in LPS-challenged rats; assay: Rat LPS neutrophilia model; assay type: in vivo; details: LPS aerosol, lavage 4 hours later, in at least one of the range of conditions tested, significance p<0.05
Description: The effect of compounds on the influx of neutrophils to the lung in LPS-challenged rats is evaluated as follows. The test compound is suspended in one of the following solutions: 0.5% tween 80/PBS, 0.5% tween 80/saline, 10% EtOH/saline (with pH adjusted to 2.0, or 8.0 with HCl, or unadjusted), Saline (pH 2.0, 6.5 or 8.0, 0.5% Tragacanth, 1% DMSO/20% Encapsin/Saline, or acidified 5% Tragacanth. The suspension process may be aided by the use of a glass homogenizer. For intratracheal administration, the animals are anesthetized with inhaled isoflurane and placed in a supine position, the trachea is intubated with a steel gavage needle (1.5 inch, 22 gauge, small ball) or a Penn-Century Microsprayer Aerosolizer (model IA-LB) and 200 ul of dosing solution is delivered. The animals are visually monitored during the recovery process, which typically occurs within two minutes.
Rats treated with compound or vehicle (15 min-24 hours pretreatment) are exposed to an LPS aerosol (100 ug/ml) for 15 min. Four hours later the rats are euthanized with pentobarbital (100 mg/kg, i.p.) and the airways are lavaged with 5 washes of 5 ml of phosphate buffered saline. The harvested cells are stained (Diffquick) and counted to determine total and differential cell data. In a typical study, macrophages represent 40-70% of the total cells, and polymorphonuclear cells 30-60% of the total cells. Inhibition of neutrophil levels relative to no compound controls is calculated based on the differential counts.
The assay has varying conditions, such as concentration, pretreat time, form of the compound (crystalline, amorphous, salts, micronised), and a wet or dry application of the compound.
The data is obtained as % inhibition using a particular concentration and pretreat time.

[2] = test system: IL-8 production by human neutrophils; assay: TNF-stimulated IL-8 production from human neutrophils; assay type: cell-based; details: Neutrophil, bound, not more than 50% inhibition at 100 nM, read-out: IC50
Description: TNF-Stimulated IL-8 Production from Human Neutrophils The effect of test compounds on TNF-stimulated IL8 production by human neutrophils is measured as follows. Neutrophils are prepared from blood obtained from consenting donors, using standard methods. Blood is collected in heparinized syringes and layered over histopaque (30 ml/20 ml). Following centrifugation, the red cell pellet is resuspended in PBS and purified over a dextran gradient. Red blood cells are lysed with water for 40 sec, remaining granulocytes collected by centrifugation and resuspended at 1.5×10̂6 cells/ml. Cells are added (0.5-1 ml) to 48 well plates already containing compound at 1000×final concentration in neat DMSO or 10% DMSO in RPMI1640 with 10% FBS. TNF (final concentration 100 ng/ml) is used as the stimulus. Cells incubated for approximately 20 hrs at 37° C., 5% CO2. Levels of IL-8 in the cell free supernatant are determined by sandwich ELISA, and inhibition relative to a control with DMPO but no compound is calculated.

T1 sequence (Q16539 whole entry): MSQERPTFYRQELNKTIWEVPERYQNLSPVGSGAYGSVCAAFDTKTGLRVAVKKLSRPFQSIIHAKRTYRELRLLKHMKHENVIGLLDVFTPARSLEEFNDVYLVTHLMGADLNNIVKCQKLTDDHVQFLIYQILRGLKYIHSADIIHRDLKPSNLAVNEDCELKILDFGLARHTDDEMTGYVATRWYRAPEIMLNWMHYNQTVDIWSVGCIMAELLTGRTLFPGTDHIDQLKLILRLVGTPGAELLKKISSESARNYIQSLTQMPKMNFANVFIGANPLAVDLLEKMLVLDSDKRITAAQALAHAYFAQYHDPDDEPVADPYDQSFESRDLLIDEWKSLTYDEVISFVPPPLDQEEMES

Compound | active in the assay (pIC50, p38α binding) (Recombinant human p38α) | inhibition of neutrophilia [1] | IC50 [2] [nM]
CSc1nc(-c2cc(NC(=O)c3ccc(C)c(F)c3)ccc2C)c2c(n1)N(c1c(F)cccc1F)C(=O)NC2 [23(c), N-{3-[8-(2,6-difluorophenyl)-2-(methylthio)-7-oxo-5,6,7,8-tetrahydropyrimido[4,5-d]pyrimidin-4-yl]-4-methylphenyl}-3-fluoro-4-methylbenzamide] | active | inactive | –
Cc1ccc(C(=O)NC(C)C)cc1-c1nc(NCCN2CCN(Cc3ccccc3)CC2)nc2c1CNC(=O)N2c1c(F)cccc1F [Example 197, 3-[8-(2,6-difluorophenyl)-7-oxo-2-({2-[4-(phenylmethyl)-1-piperazinyl]ethyl}amino)-5,6,7,8-tetrahydropyrimido[4,5-d]pyrimidin-4-yl]-4-methyl-N-(1-methylethyl)benzamide trifluoroacetate] | – | – | > 100
Cc1ccc(C(=O)NC(C)C)cc1-c1nc(N(C)CCCN(C)CCCN(C)C)nc2c1CNC(=O)N2c1c(F)cccc1F [Example 116, 3-{8-(2,6-difluorophenyl)-2-[{3-[[3-(dimethylamino)propyl]-(methyl)amino]propyl}(methyl)amino]-7-oxo-5,6,7,8-tetrahydropyrimido[4,5-d]pyrimidin-4-yl}-4-methyl-N-(1-methylethyl)benzamide] | – | – | > 100
CCCNC(=O)c1ccc(C)c(-c2nc(NCCC(=O)O)nc3c2CNC(=O)N3c2c(F)cccc2F)c1 [Example 229, N-(8-(2,6-difluorophenyl)-4-{2-methyl-5-[(propylamino)carbonyl]phenyl}-7-oxo-5,6,7,8-tetrahydropyrimido[4,5-d]pyrimidin-2-yl)-β-alanine] | – | – | > 100
Cc1ccc(C(=O)Nc2ccc(F)cc2)cc1-c1nc(N(C)CCN(C)C)nc2c1CNC(=O)N2c1c(F)cccc1F [Example 32, 3-{8-(2,6-difluorophenyl)-2-[[2-(dimethylamino)ethyl](methyl)amino]-7-oxo-5,6,7,8-tetrahydropyrimido[4,5-d]pyrimidin-4-yl}-N-(4-fluorophenyl)-4-methylbenzamide] | active | statistically nonsignificant inhibition of neutrophilia | –
CSc1nc(-c2cc(NC(=O)c3ccsc3)ccc2C)c2c(n1)N(c1c(F)cccc1F)C(=O)NC2 [7(c), N-{3-[8-(2,6-Difluorophenyl)-2-(methylthio)-7-oxo-5,6,7,8-tetrahydropyrimido[4,5-d]pyrimidin-4-yl]-4-methylphenyl}-3-thiophenecarboxamide] | active | inactive | –
Cc1ccc(C(=O)Nc2nccs2)cc1-c1nc(NCCN(C)C)nc2c1CNC(=O)N2c1c(F)cccc1F [118(c), 3-(8-(2,6-difluorophenyl)-2-{[2-(dimethylamino)ethyl]amino}-7-oxo-5,6,7,8-tetrahydropyrimido[4,5-d]pyrimidin-4-yl)-4-methyl-N-1,3-thiazol-2-ylbenzamide] | active | statistically significant inhibition of neutrophilia | –
Cc1ccc(C(=O)NC(C)C)cc1-c1nc(N(C)CCCN(C)C)nc2c1CNC(=O)N2c1c(F)cccc1F [34(d), 3-{8-(2,6-difluorophenyl)-2-[[3-(dimethylamino)propyl](methyl)amino]-7-oxo-5,6,7,8-tetrahydropyrimido[4,5-d]pyrimidin-4-yl}-4-methyl-N-(1-methylethyl)benzamide] | active | statistically nonsignificant inhibition of neutrophilia | –
Cc1ccc(C(=O)Nc2ccc(F)cc2)cc1-c1nc(NCCN(C)C)nc2c1CNC(=O)N2c1c(F)cccc1F [8(c), 3-(8-(2,6-difluorophenyl)-2-{[2-(dimethylamino)ethyl]amino}-7-oxo-5,6,7,8-tetrahydropyrimido[4,5-d]-pyrimidin-4-yl)-N-(4-fluorophenyl)-4-methylbenzamide] | active | statistically significant inhibition of neutrophilia | –
CCCNC(=O)c1ccc(C)c(-c2nc(NCCCN(CC)CC)nc3c2CNC(=O)N3c2c(F)cccc2F)c1 [29(c), 3-[2-{[3-(diethylamino)propyl]amino}-8-(2,6-difluorophenyl)-7-oxo-5,6,7,8-tetrahydropyrimido[4,5-d]pyrimidin-4-yl]-4-methyl-N-propylbenzamide] | active | statistically significant inhibition of neutrophilia | –
Cc1ccc(C(=O)Nc2ccc(F)cc2)cc1-c1nc(N2CCC(N3CCCC3)CC2)nc2c1CNC(=O)N2c1c(F)cccc1F [86(c), 3-{8-(2,6-difluorophenyl)-7-oxo-2-[4-(1-pyrrolidinyl)-1-piperidinyl]-5,6,7,8-tetrahydropyrimido[4,5-d]pyrimidin-4-yl}-N-(4-fluorophenyl)-4-methylbenzamide] | active | statistically nonsignificant inhibition of neutrophilia | –
CCN(CC)CCCNc1nc(-c2cc(C(=O)Nc3nccs3)ccc2C)c2c(n1)N(c1c(F)cccc1F)C(=O)NC2 [Example 120, 3-[2-{[3-(diethylamino)propyl]amino}-8-(2,6-difluorophenyl)-7-oxo-5,6,7,8-tetrahydropyrimido[4,5-d]pyrimidin-4-yl]-4-methyl-N-1,3-thiazol-2-ylbenzamide] | – | statistically significant inhibition of neutrophilia | –
Cc1ccc(C(=O)NC(C)C)cc1-c1nc(N2CCCN(C)CC2)nc2c1CNC(=O)N2c1c(F)cccc1F [Example 179, 3-[8-(2,6-difluorophenyl)-2-(4-methylhexahydro-1H-1,4-diazepin-1-yl)-7-oxo-5,6,7,8-tetrahydropyrimido[4,5-d]pyrimidin-4-yl]-4-methyl-N-(1-methylethyl)benzamide trifluoroacetate] | – | statistically nonsignificant inhibition of neutrophilia | –
Cc1ccc(C(=O)Nc2ccc(F)cc2)cc1-c1nc(N2CCC(N3CCCCC3)CC2)nc2c1CNC(=O)N2c1c(F)cccc1F [87(b), 3-[2-(1,4′-bipiperidin-1′-yl)-8-(2,6-difluorophenyl)-7-oxo-5,6,7,8-tetrahydropyrimido[4,5-d]pyrimidin-4-yl]-N-(4-fluorophenyl)-4-methylbenzamide] | active | statistically nonsignificant inhibition of neutrophilia | –
